# Laboratory results taken from patent publication US10314827B2, “Methods of use of cyclopamine analogs” (Infinity Pharmaceuticals, Inc., priority 2006, dated 2019).
# Read-outs that look alike come from different tables or passages of the source.
# How the values were obtained:
# Hedgehog pathway = experiment: C3H10T1/2 osteoblast differentiation assay (alkaline phosphatase readout); type: cell-based, Mouse; settings: C3H10T1/2 cells, sonic Hedgehog 250 ng/ml, AP activity normalized to total protein, read-out: Differentiation Assay EC50 (approximate EC50 for inhibition)
# Description: Hedgehog pathway specific cancer cell killing effects may be ascertained using the following assay. C3H10T1/2 cells differentiate into osteoblasts when contacted with the sonic hedgehog peptide (Shh-N). Upon differentiation; these osteoblasts produce high levels of alkaline phosphatase (AP) which can be measured in an enzymatic assay (Nakamura et al., X BBRC (1997) 237:465). Compounds that block the differentiation of C3H10T1/2 into osteoblasts (a Shh dependent event) can therefore be identified by a reduction in AP production (van der Horst et al., Bone (2003) 33:899). The assay details are described below. The results approximate (EC50 for inhibition) of the differentiation assay is shown below in Table 1.
# Mouse embryonic mesoderm fibroblasts C3H10T1/2 cells (obtained from ATCC) were cultured in Basal MEM Media (Gibco/Invitrogen) supplemented with 10% heat inactivated FBS (Hyclone), 50 units/ml penicillin and 50 ug/ml streptomycin (Gibco/Invitrogen) at 37° C. With 5% CO2 in air atmosphere.
# C3H10T1/2 cells were plated in 96 wells with a density of 8×10^3 cells/well. Cells were grown to confluence (72 hrs). After sonic Hedgehog (250 ng/ml), and/or compound treatment, the cells were lysed in 110 μL of lysis buffer (50 mm Tris ph 7.4, 0.1% tritonx100), plates were sonicated and lysates spun through 0.2 μm PVDF plates (Corning). 40 μL of lysates was assayed for AP activity in alkaline buffer solution (Sigma) containing 1 mg/ml p-Nitrophenyl Phosphate. After incubating for 30 min at 37° C., the plates were read on an Envision plate reader at 405 nm. Total protein was quantified with a BCA protein assay kit from Pierce according to manufacturer's instructions. AP activity was normalized against total protein.
# BXPC-3 cells = experiment: Pancreatic cancer model: subcutaneous BXPC-3 tumors in mice; type: in vivo, human; settings: orally 40 mg/kg/day, 25 daily doses, p=0.0309
# Description: (§1) The activity of Compound 42 was further tested in a human pancreatic model: BXPC-3 cells were implanted subcutaneously into the flanks of the right legs of mice. On day 42 post-tumor implant, the mice were randomized into two groups to receive either Vehicle (30% HPBCD) or Compound 42. Compound 42 administered orally at 40 mg/kg/day. […] At the end of the study, the tumors were harvested 4 hours post the last dose to evaluate an on target response by q-RT-PCR analysis of the HH pathway genes.
# human Gli-1 = experiment: q-RT-PCR of HH pathway genes in harvested BXPC-3 tumors, human Gli-1; type: in vivo; settings: tumors harvested 4 hours post last dose, 40 mg/kg/day orally
# Description: as §1
# murine Gli-1 = experiment: q-RT-PCR of HH pathway genes in harvested BXPC-3 tumors, murine Gli-1; type: in vivo; settings: tumors harvested 4 hours post last dose, 40 mg/kg/day orally, vs vehicle group
# Description: as §1
# medulloblastoma = experiment: Medulloblastoma model: Ptch1/Hic1 subcutaneous allografts, tumor growth; type: in vivo, mouse
# Description: (§2) The activity of Compound 42 was also evaluated in a transgenic mouse model of medulloblastoma. Mice that are heterozygous for loss of function mutations in the tumor suppressors Patched1 (Ptch1) and Hypermethylated in Cancer (Hic1) develop spontaneous medulloblastoma. […] When passaged as subcutaneous allografts, these tumors grow aggressively and are Hedgehog pathway-dependent. This model was employed to evaluate the efficacy of orally administered Compound, and to correlate activity with drug exposure in plasma and tumors.
# The approximate effective daily oral dose for 50% inhibition of tumor growth (ED50) is 4 mg/kg.
# Gli-1 = experiment: Medulloblastoma model: Gli-1 mRNA expression in subcutaneously implanted tumors; type: in vivo, mouse; settings: single oral dose, 8 hours post dose
# Description: as §2
# LX22 cells = experiment: Lung cancer model: LX22 primary SCLC xenograft; type: in vivo, human
# Description: To test the activity of Compound 42 in a human SCLC tumor model, LX22 cells were implanted subcutaneously into the flank of the right leg. LX22 is primary xenograft model of SCLC derived from chemo-naive patients, which has been maintained by mouse to mouse passaging. This tumor responds to etoposide/carboplatin chemotherapy in way that closely resembles a clinical setting. LX22 regresses during chemotherapy treatment, goes through a period of remission, and then begins to recur. In the LX22 model, Compound single agent activity and its ability to modulate the chemoresistant recurrence was tested. On day 32 post tumor implant, mice were randomized into three dosing groups to receive Vehicle (30% HBPCD), Compound, or the chemotherapy combination of etoposide and carboplatin (E/P). […] Etoposide was administered i.v at 12 mg/kg on days 34, 35, 36, and 48, while Carboplatin was administered i.v. At 60 mg/kg on days 34, 41, and 48, post tumor implant. On day 50, the E/P treated mice were further randomized to receive either Vehicle (30% HPBCD) or Compound follow up treatment.
# Oral multi-dose MTD = settings: mouse, in vivo, mice
# NCI-H929 = experiment: Multiple myeloma colony growth in methylcellulose, NCI-H929; type: cell-based, human; settings: NCI-H929, treated 96 hours, colonies quantified 10-21 days later
# Description: (§3) The ability of Compound 42 to inhibit the growth of multiple myeloma cells (MM) in vitro was tested, using human multiple myeloma cells lines (NCI-H929 and KMS12) and primary clinical bone marrow specimens derived from patients with MM. The cells were treated for 96 hours with Compound, washed, then plated in methylcellulose. Tumor colonies were quantified 10-21 days later as an indicator of cell growth potential following treatment.
# KMS12 = experiment: Multiple myeloma colony growth in methylcellulose, KMS12; type: cell-based, human; settings: KMS12, treated 96 hours, colonies quantified 10-21 days later
# Description: as §3
# [1] = tested on: primary clinical bone marrow specimens derived from patients with MM; experiment: Multiple myeloma colony growth in methylcellulose, primary clinical specimens; type: cell-based, human; settings: primary clinical MM samples, treated 96 hours, colonies quantified 10-21 days later
# Description: as §3
# U937 = experiment: AML colony formation in methylcellulose, U937; type: cell-based, human; settings: 1.0 um, 72 hours
# Description: (§4) The ability of Compound 42 to inhibit the in vitro growth of human cell lines derived from patients with acute myeloid leukemia (AML, cell line U937) and myelodysplastic syndrome (MDS, cell line KG1 and KG1a) was studied. Each of the cell lines was treated for 72 hours with Compound 42 (1.0 um) followed by plating in methylcellulose.
# KG1 = experiment: MDS colony formation in methylcellulose, KG1; type: cell-based, human; settings: 1.0 um, 72 hours
# Description: as §4
# KG1a = experiment: MDS colony formation in methylcellulose, KG1a; type: cell-based, human; settings: 1.0 um, 72 hours
# Description: as §4
# L428 = experiment: Hodgkin's disease colony formation in methylcellulose, L428; type: cell-based, human; settings: L428 (HD), 1.0 um, 72 hours
# Description: (§5) The ability of Compound 42 to inhibit the in vitro growth of human cell lines derived from patients with non-Hodgkin's lymphoma (cell lines RL and Jeko-1) and Hodgkin's disease (cell line L428) was studied. Each of the cell lines was treated for 72 hours with Compound 42 (1.0 um) followed by plating in methylcellulose.
# RL = experiment: NHL colony formation in methylcellulose, RL; type: cell-based, human; settings: 1.0 um, 72 hours
# Description: as §5
# Jeko-1 = experiment: NHL colony formation in methylcellulose, Jeko-1; type: cell-based, human; settings: Jeko-1 (NHL), 1.0 um, 72 hours
# Description: as §5
# [2] = tested on: Gli-responsive luciferase reporter; experiment: Gli-responsive luciferase reporter transient transfection assay, REH; type: cell-based; settings: 1 um, vehicle alone 6.73
# Description: (§6) The activity of Compound 42 (1 um) against three pre-B cell acute lymphocytic leukemia cell lines (REH, RS4-11, and Nalm-6) was studied, using a transient transfection assay in which a Gli-responsive luciferase reporter was transiently transfected into cells. Treatment with Compound 42 repressed luciferase activity compared to a vehicle treated control (Table 4).
# [3] = tested on: Gli-responsive luciferase reporter; experiment: Gli-responsive luciferase reporter transient transfection assay, RS4-11; type: cell-based; settings: RS4-11, 1 um; vehicle alone 12.97
# Description: as §6
# [4] = tested on: Gli-responsive luciferase reporter; experiment: Gli-responsive luciferase reporter transient transfection assay, Nalm-6; type: cell-based; settings: Nalm-6, 1 um; vehicle alone 8.42
# Description: as §6
# REH = experiment: ALL colony formation in methylcellulose, REH; type: cell-based; settings: treated 72 hours
# Description: (§7) The effect of Compound 42 on the growth of two of these cell lines, treated in vitro for 72 hours, was also studied. Following treatment, cells were washed and plated in methylcellulose.
# RS4-11 = experiment: ALL colony formation in methylcellulose, RS4-11; type: cell-based; settings: RS4-11, treated 72 hours
# Description: as §7
compound,measurement,setting,value
CC1=C2C[C@H]3[C@@H](CC[C@@H]4C[C@H](NS(C)(=O)=O)CC[C@@]43C)[C@@H]2CC[C@@]2(C1)O[C@@H]1C[C@H](C)CN[C@H]1[C@H]2C [Compound 42],EC50,"Hedgehog pathway; Mus musculus, C3H 10T1/2",< 20 nM
same,reduction of tumor volume growth compared to vehicle control,BXPC-3 cells,40%
same,human Gli-1 modulation (q-RT-PCR),human Gli-1,no modulation
same,murine Gli-1 mRNA levels (q-RT-PCR),murine Gli-1,robust down-regulation
same,ED50,"medulloblastoma; Mus musculus, daily oral dosing, approximate, read-out: effective daily oral dose for 50% inhibition of tumor growth (ED50)",~4 mg/kg
same,inhibition of tumor growth,medulloblastoma; daily (QD) PO administration,"dose dependent inhibition of tumor growth, with frank tumor regression seen at higher doses"
same,long term survival following cessation of treatment,medulloblastoma; treated QD for 21 days,> 60 days
same,tumor re-growth following cessation of treatment,medulloblastoma; treated QD for 21 days,little to no tumor re-growth
same,HH pathway down-regulation measured by Gli-1 mRNA expression,Gli-1,dose-dependent down-regulation
same,"tumor recurrence after etoposide/carboplatin (E/P), treated vs vehicle group","LX22 cells; follow up treatment from day 50, 40 mg/kg/day orally, 35 consecutive doses, p=0.0101",substantial delay in tumor recurrence
same,"single agent activity, treated vs vehicle groups","LX22 cells; orally 40 mg/kg/day, 16 consecutive doses",no measurable difference
same,MTD,Oral multi-dose MTD,40 mg/kg/day
same,growth of cells relative to untreated control (100%),NCI-H929,less than 25%
same,growth of cells relative to untreated control (100%),KMS12,less than 25%
same,growth of cells relative to untreated control (100%),[1],less than 25%
same,% colony formation with Compound 42 (relative to vehicle control),U937,43.4%
same,% colony formation with Compound 42 (relative to vehicle control),KG1,25.1%
same,% colony formation with Compound 42 (relative to vehicle control),KG1a,34.6%
same,% colony formation with Compound 42 (relative to vehicle control),L428,21.4%
same,% colony formation with Compound 42 (relative to vehicle control),RL,14.3%
same,% colony formation with Compound 42 (relative to vehicle control),Jeko-1,27.4%
same,Relative luc activity (+Compound),[2],1.12
same,Relative luc activity (+Compound),[3],1.31
same,Relative luc activity (+Compound),[4],1.44
same,colony formation with Compound (relative to vehicle control) - 1° plating,REH,63
same,colony formation with Compound (relative to vehicle control) - 2° plating,REH; replating of colonies,9
same,colony formation with Compound (relative to vehicle control) - 1° plating,RS4-11,71
same,colony formation with Compound (relative to vehicle control) - 2° plating,RS4-11; replating of colonies,11
CC1=C2C[C@H]3[C@@H](CC[C@@H]4CC(=O)CC[C@@]43C)[C@@H]2CC[C@@]2(C1)O[C@@H]1C[C@H](C)CN(CCNC(=O)CCc3ccccc3)[C@H]1[C@H]2C [Compound 23],EC50,"Hedgehog pathway; Mus musculus, C3H 10T1/2",< 20 nM
CC1=C2C[C@H]3[C@@H](CC[C@@H]4CC(=O)CC[C@@]43C)[C@@H]2CC[C@@]2(C1)O[C@@H]1C[C@H](C)CN(CCNCC(=O)c3ccccc3)[C@H]1[C@H]2C [Compound 13],EC50,Hedgehog pathway,< 20 nM
CC(=O)NCCN1C[C@@H](C)C[C@H]2O[C@]3(CC[C@@H]4C(=C(C)C3)C[C@H]3[C@H]4CC[C@@H]4CC(=O)CC[C@@]43C)[C@H](C)[C@@H]21 [Compound 21],EC50,"Hedgehog pathway; Mus musculus, C3H 10T1/2",20 to 100 nM
CC1=C2C[C@H]3[C@@H](CCC4=CC(=O)CC[C@@]43C)[C@@H]2CC[C@@]2(C1)O[C@@H]1C[C@H](C)CN(CCN(C)C)[C@H]1[C@H]2C [Compound 20],EC50,Hedgehog pathway,< 20 nM
CC1=C2C[C@H]3[C@@H](CC[C@@H]4CC(=O)CC[C@@]43C)[C@@H]2CC[C@@]2(C1)O[C@@H]1C[C@H](C)CN[C@H]1[C@H]2C [Compound 1],EC50,"Hedgehog pathway; Mus musculus, C3H 10T1/2",< 20 nM
CC1=C2C[C@H]3[C@@H](CC[C@@H]4C[C@H](NS(C)(=O)=O)CC[C@@]43C)[C@@H]2CC[C@]12O[C@@H]1C[C@H](C)CN[C@H]1[C@H]2C [Compound 55],EC50,"Hedgehog pathway; Mus musculus, C3H 10T1/2",< 20 nM
CC1=C2C[C@H]3[C@@H](CC[C@@H]4CCCC[C@@]43C)[C@@H]2CC[C@@]2(C1)O[C@@H]1C[C@H](C)CN[C@H]1[C@H]2C [Compound 9],EC50,"Hedgehog pathway; Mus musculus, C3H 10T1/2",> 100 nM
CC1=C2C[C@H]3[C@@H](CC[C@@H]4CC(=O)CC[C@@]43C)[C@@H]2CC[C@@]2(C1)O[C@@H]1C[C@H](C)CN(CCN(C)C(=O)CCc3ccccc3)[C@H]1[C@H]2C [Compound 24],EC50,"Hedgehog pathway; Mus musculus, C3H 10T1/2",< 20 nM
CC1=C2C[C@H]3[C@@H](CC[C@@H]4CC(=O)CC[C@@]43C)[C@@H]2CC[C@@]2(C1)O[C@@H]1C[C@H](C)CN(C(C)C)[C@H]1[C@H]2C [Compound 10],EC50,"Hedgehog pathway; Mus musculus, C3H 10T1/2",> 100 nM
CC1=C2C[C@H]3[C@@H](CC=C4C[C@@H](OCc5ccccc5)CC[C@@]43C)[C@@H]2CC[C@@]2(C1)O[C@@H]1C[C@H](C)CN(C(=O)OCc3ccccc3)[C@H]1[C@H]2C [Compound 7],EC50,Hedgehog pathway,> 100 nM
CC(=O)O[C@H]1CC[C@@]2(C)[C@H](CC[C@H]3[C@@H]4CC[C@@]5(CC(C)=C4C[C@@H]32)O[C@@H]2C[C@H](C)CN[C@H]2[C@H]5C)C1 [Compound 35],EC50,"Hedgehog pathway; Mus musculus, C3H 10T1/2",< 20 nM
CC(=O)N(C)CCN1C[C@@H](C)C[C@H]2O[C@]3(CC[C@@H]4C(=C(C)C3)C[C@H]3[C@H]4CC[C@@H]4CC(=O)CC[C@@]43C)[C@H](C)[C@@H]21 [Compound 22],EC50,"Hedgehog pathway; Mus musculus, C3H 10T1/2",< 20 nM
